Results taken from patent US7994279B2, “Altered peptide ligands of GAD65” (The University of Toledo, priority 2006, dated 2011).

Key:
[1] = system: HLA.A2; experiment: Binding of GAD65 546-554 fragments to human MHC class I
From the text: Treatments which reduce GAD65 response can ameliorate Type 1 diabetes in NOD mice (spontaneous responses in NOD and NOD.HLA.A2 mice; the GAD65 546-554 fragments bind Kd and HLA.A2). Unlike the GAD65 molecule, the APL compositions can target a specific set of T cells and reduce the risk of accidental activation of pathogenic T cells.
The mouse (Kd) and human (HLA-A2) are associated with increased risk of Type 1 diabetes.

[2] = system: CTL clone 14.86; experiment: THF release by CTL clone 14.86 (FIG. 8, Table 2); format: cell-based; conditions: for Percent Reduction of THF: clone 14.86
From the text: ID No.:11] decreases THF of CTL clone 14.86.

[3] = system: CTL clones; experiment: IFN release by CTL clones (FIG. 7, Table I); format: cell-based; set-up: Percent Reduction of IFN release: concentration or dose not given beside the values

Substance	binding to HLA.A2 [1]	THF of CTL clone (effect in words) ([2]; CTL clone 14.86)	Percent Reduction of THF ([2]; A375) [%]	Percent Reduction of THF ([2]; B7) [%]	Percent Reduction of IFN release ([3]; clone 14.69, A375) [%]	Percent Reduction of IFN release ([3]; clone 14.69, B7) [%]	Percent Reduction of IFN release ([3]; clone 14.81, A375) [%]	Percent Reduction of IFN release ([3]; clone 14.81, B7) [%]	Percent Reduction of IFN release ([3]; clone 14.86, A375) [%]	Percent Reduction of IFN release ([3]; clone 14.86, B7) [%]	IFN release (effect in words) ([3]; various CLT clones)
GAD65 546-554: natural 546-554 fragment of glutamic acid decarboxylase GAD65; probably SEQ.ID No. 2 (SYQPLGDKV)	bind	–	–	–	–	–	–	–	–	–	–
S-Y-Q-P-L-G-D-K-A (SYQPLGDKA) [APL-70]	–	decreases THF	37	34	41	27	31	23	16	17	decreases IFN release
